Source: PMC7730182, “Synthesis and in Silico Modelling of the Potential Dual Mechanistic Activity of Small Cationic Peptides Potentiating the Antibiotic Novobiocin against Susceptible and Multi-Drug Resistant Escherichia coli” (International Journal of Molecular Sciences, 2020)
Where a SMILES comes first, the peptide text is derived from it. The star is where a group is joined. βNA = c1ccc2cc(N*)ccc2c1

Legend:
Assay type in all cases: cell-based, Escherichia coli
[1] = tested on: susceptible E. coli NCTC 10418; experiment: Novobiocin potentiation assay (MIC of novobiocin with fixed concentration of peptide or PAβN); parameters: key to MIC of Novobiocin, E. coli NCTC 10418, +128 μg/mL added peptide / MIC of Novobiocin, E. coli NCTC 10418, +32 μg/mL added peptide: Non potentiating (NP) indicated no reduction in the MIC of novobiocin was observed; conditions: for MIC of Novobiocin, E. coli NCTC 10418, +128 μg/mL added peptide / MIC of Novobiocin, E. coli NCTC 10418, +32 μg/mL added peptide: Iso-Sensitest Broth, 5 × 10^5 CFU/mL, visual read-out; for MIC of Novobiocin, E. coli NCTC 10418, +128 μg/mL added peptide: fixed 128 μg/mL peptide; for MIC of Novobiocin, E. coli NCTC 10418, +32 μg/mL added peptide: fixed 32 μg/mL peptide; for potentiation of the MIC of novobiocin, result in words: added peptide, wording covers susceptible and multi-drug resistant strain
Description: (§1) The peptides were also tested in combination with antibiotics novobiocin and norfloxacin. Novobiocin has low efficacy against Gram-negative bacteria due to its hydrophobicity, giving limited cell permeability.
(§2) The antibacterial activity of the peptides and peptide/antibiotic combinations were tested by the broth microdilution assay according to [24]. Escherichia coli NCTC 10,418 and Staphylococcus aureus NCTC 12,981 were obtained from the National Collection of Type Cultures, UK. Escherichia coli G69 was a clinical isolate as previously described.
(§3) Briefly, all bacterial strains were cultured on nutrient agar (Sigma-Aldrich, Gillingham, UK) plates and incubated for 24 h at 37 °C prior to MIC determination. In addition, known quantities of each test sample were dissolved in DMSO and then diluted in ISB (Iso- Sensitest Broth, Oxoid, Basingstoke, UK) to give a range concentration of 128–0 μg/mL, unless stated differently. […] Finally, the overnight cultures of each of the tested strains were suspended to an inoculum density of approximately 1.0 × 10^8 CFU/mL in phosphate buffered saline (PBS), consisting of 137 mM NaCl, 3 mM KCl, 8 mM Na2HPO4, and […] (Oxoid, Basingstoke, UK). The cell suspensions were standardized by adjusting the optical density to 0.1 at 600 nm (Thermo Scientific UV-Vis Spectrophotometer, Abingdon, UK) before being diluted 1:100 in ISB prior to inoculation
(§4) The assays were performed by microdilution using 96-well microtiter plates with a final inoculum of 5 × 10^5 CFU/mL and each sample was tested in duplicate in at least two independent experiments in order to confirm the reliability of the data. Results were determined by visual inspection of the wells and the presence of an evident opaque medium or white pellets were indicative of bacterial growth. The MIC values were recorded as the lowest concentration at which no bacterial growth was detected.

[2] = tested on: susceptible E. coli 10418; experiment: Norfloxacin potentiation assay (MIC of norfloxacin with fixed concentration of peptide or PAβN); conditions: broth microdilution, duplicate; for MIC of norfloxacin, E. coli 10418, +128 μg/mL of peptide: fixed 128 μg/mL peptide
Description: (§5) In order to gather more evidence on the potential mechanisms of action, the effects of the peptides in combination with the quinolone antibiotic norfloxacin were determined. Norfloxacin is active against Gram-negative bacteria, generally achieving entry via porin channels, but is also able to enter the bacterial cell via the membrane in porin-deficient mutants. Therefore, any membrane permeability mechanism would not be expected to have a significant effect on improving the activity of norfloxacin in porin-competent strains. This is indeed what was observed (Table S5), which added weight to our hypothesis that our very short peptides may be acting as membrane permeability enhancers for novobiocin.
as §2
as §3, with “inoculation […]” for “inoculation”
as §4, with “detected. […]” for “detected.”
(§6) potentiating novobiocin. Assays were performed at fixed concentration of 128 μg/mL against susceptible E. coli 10418 and multidrug resistant clinical isolate E. coli G69. Potentiation assay for norfloxacin was also performed in presence of 64 μg/mL of RND efflux pump inhibitor PAβN. All tests were repeated in […]
(§7) Compound Sequence MIC of norfloxacin (μg/mL) […]
(§8) inhibitor PaβN but no potentiation was observed, so the assay was not repeated at lower concentrations.

[3] = tested on: multidrug resistant clinical isolate E. coli G69; experiment: as above; conditions: broth microdilution, duplicate; for MIC of norfloxacin, E. coli G69, +128 μg/mL of peptide: fixed 128 μg/mL peptide
Description: as §5, §2
as §3, with “inoculation […]” for “inoculation”
as §4, with “detected. […]” for “detected.”
as §6, §7, §8

[4] = tested on: multi-drug resistant clinical isolate E. coli G69; experiment: Novobiocin potentiation assay (MIC of novobiocin with fixed concentration of peptide or PAβN); parameters: key to MIC of Novobiocin, E. coli G69, +32 μg/mL added peptide / MIC of Novobiocin, E. coli G69, +128 μg/mL added peptide: Non potentiating (NP) indicated no reduction in the MIC of novobiocin was observed; conditions: for MIC of Novobiocin, E. coli G69, +128 μg/mL added peptide / MIC of Novobiocin, E. coli G69, +32 μg/mL added peptide: Iso-Sensitest Broth, 5 × 10^5 CFU/mL, visual read-out; for MIC of Novobiocin, E. coli G69, +128 μg/mL added peptide: fixed 128 μg/mL peptide; for potentiation of novobiocin against multi-drug resistant E. coli, result in words: E. coli G69, added peptide; for MIC of Novobiocin, E. coli G69, +32 μg/mL added peptide: fixed 32 μg/mL peptide
Description: as §1, §2, §3, §4

[5] = fixed 32 μg/mL PAβN, broth microdilution, duplicate
[6] = fixed 64 μg/mL PAβN, broth microdilution, duplicate

Compound | MIC of Novobiocin, E. coli NCTC 10418, +128 μg/mL added peptide ([1]; broth microdilution, duplicate) | MIC of Novobiocin, E. coli G69, +128 μg/mL added peptide ([4]; broth microdilution, duplicate) | MIC of Novobiocin, E. coli G69, +32 μg/mL added peptide ([4]; broth microdilution, duplicate) | MIC of norfloxacin, E. coli 10418, +128 μg/mL of peptide [2] | MIC of norfloxacin, E. coli G69, +128 μg/mL of peptide [3] | further results
NC(N)=NCCC[C@H](NC(=O)[C@@H](N)Cc1ccccc1)C(=O)Nc1ccc2ccccc2c1 [PAβN, phenylalanine-arginine-β-naphthylamide, reference compound] (H-Phe-Arg-βNA) |  |  |  |  |  | reduction in MIC for novobiocin, susceptible E. coli 10418 ([1]; PAβN concentration of 72 μM (32 μg/mL)): twofold; MIC of Novobiocin, E. coli NCTC 10418, +32 μg/mL PAβN [1, 5]: 16 µg/mL; MIC of Novobiocin, E. coli NCTC 10418, +64 μg/mL PAβN [1, 6]: 8 µg/mL; MIC of norfloxacin, E. coli 10418, +64 μg/mL PAβN ([2]; fixed 64 μg/mL PAβN): 0.125 µg/mL; MIC of norfloxacin, E. coli G69, +64 μg/mL PAβN ([3]; fixed 64 μg/mL PAβN): > 128 µg/mL; MIC of Novobiocin, E. coli G69, +32 μg/mL PAβN [4, 5]: 8 µg/mL; MIC of Novobiocin, E. coli G69, +64 μg/mL PAβN [4, 6]: 2 µg/mL; concentration at which synergism with novobiocin is provided against multi-drug resistant E. coli G69 ([4]; molar equivalent of the 32 μg/mL fixed concentration): 72 µM
FKFK [Compound 17, short cationic peptide FKFK, amidated at the C-terminus] | NP | NP |  |  |  | 
FKFKF [Compound 19, short cationic peptide FKFKF, amidated at the C-terminus] | 4 µg/mL | 8 µg/mL | 32 µg/mL |  |  | MIC of Novobiocin, E. coli NCTC 10418, +32 μg/mL added peptide ([1]; broth microdilution, duplicate): 128 µg/mL; potentiation of novobiocin against multi-drug resistant E. coli, result in words [4]: restore the susceptibility
FKPLPPH [Compound 25, proline-rich peptide FKPLPPH, C-terminal amide; commercial sample from ThermoFisher] | 8 µg/mL | NP |  | 0.062 µg/mL | > 128 µg/mL | potentiation of the MIC of novobiocin, result in words [1]: Potentiation was restored but again only against susceptible strain
FRFR [Compound 8, short cationic peptide FRFR, amidated at the C-terminus] | NP | 8 µg/mL | NP |  |  | 
FRFRF [Compound 10, short cationic peptide FRFRF, amidated at the C-terminus] | 2 µg/mL | 4 µg/mL | 8 µg/mL |  |  | potentiation of novobiocin against multi-drug resistant E. coli, result in words [4]: restore the susceptibility
FRRQRF [Compound 21, short cationic peptide FRRQRF, C-terminal amide; commercial sample from ThermoFisher] | NP ^† | NP |  | 0.062 µg/mL | > 128 µg/mL | 
KFKF [Compound 18, short cationic peptide KFKF, amidated at the C-terminus] | NP | NP |  |  |  | 
KWKW [Compound 14, short cationic peptide KWKW, amidated at the C-terminus] | NP | NP |  |  |  | 
RFRF [Compound 9, short cationic peptide RFRF, amidated at the C-terminus] | 2 µg/mL | 8 µg/mL | 128 µg/mL | 0.062 µg/mL | > 128 µg/mL | MIC of Novobiocin, E. coli NCTC 10418, +32 μg/mL added peptide ([1]; broth microdilution, duplicate): NP
RPPWRPPW [Compound 26] | 8 µg/mL | NP |  |  | > 128 µg/mL | MIC of Novobiocin, E. coli NCTC 10418, +32 μg/mL added peptide ([1]; broth microdilution, duplicate): 64 µg/mL; potentiation of novobiocin against multi-drug resistant E. coli, result in words [4]: no potentiation was seen against the multidrug resistant strain
RPRPRPL [Compound 22, proline-rich cationic peptide RPRPRPL, amidated at the C-terminus] | NP | NP |  | 0.062 µg/mL | > 128 µg/mL | potentiation of the MIC of novobiocin, result in words [1]: did not show any significant potentiation
RPRRPRLPW-NH2 [Compound 27] | 0.125 µg/mL | 16 µg/mL | 16 µg/mL | 0.062 µg/mL | > 128 µg/mL | fold reduction in the MIC of novobiocin against the susceptible strain ([1]; E. coli 10418, added peptide): 256 fold; MIC of Novobiocin, E. coli NCTC 10418, +32 μg/mL added peptide ([1]; broth microdilution, duplicate): 8 µg/mL; potentiation of novobiocin against multi-drug resistant E. coli, result in words [4]: restore the susceptibility
RPWPPR [Compound 23, proline-rich cationic peptide RPWPPR, amidated at the C-terminus] | 4 µg/mL | NP |  | 0.062 µg/mL | > 128 µg/mL | potentiation of the MIC of novobiocin, result in words [1]: shows potentiation, but only against the susceptible strain
RRFRF [Compound 11, short cationic peptide RRFRF, amidated at the C-terminus] | 64 µg/mL | 64 µg/mL |  |  |  | 
RWRW [Compound 5, short cationic peptide RWRW, amidated at the C-terminus] | 2 µg/mL | 16 µg/mL | 64 µg/mL | 0.062 µg/mL | > 128 µg/mL | MIC of Novobiocin, E. coli NCTC 10418, +32 μg/mL added peptide ([1]; broth microdilution, duplicate): 64 µg/mL
WKWK [Compound 13, short cationic peptide WKWK, amidated at the C-terminus] | NP | NP |  |  |  | 
